Experimental data as given in patent US6340676B2, “4-aryl-1-oxa-9-thia-cyclopenta (b) fluorenes” (American Home Products Corporation, priority 1998, dated 2002).

Assays:
[1] = test system: diabetic (ob/ob) mice; assay: Blood glucose lowering activity in diabetic (ob/ob) mice; format: in vivo; settings: for % Change Glucose from Vehicle: plasma glucose
Source text: The procedures used and results obtained are briefly described below.
The non-insulin dependent diabetic (NIDDM) syndrome can be typically characterizes by obesity, hyperglycemia, abnormal insulin secretion, hyperinsulinemia and insulin resistance.
In each test procedure, mice [Male or female ob/ob (C57 B1/6J) and their lean litermates (ob/+ or +/+, Jackson Laboratories) ages 2 to 5 months (10 to 65 g)] of a similar age were randomized according to body weight into 4 groups of 10 mice. The mice were housed 5 per cage and are maintained on normal rodent chow with water ad libitum. Mice received test compound daily by gavage (suspended in 0.5 ml of 0.5% methyl cellulose); dissolved in the drinking water; or admixed in the diet. The dose of compounds given ranges from 2.5 to 200 mg/kg body weight/day. The dose is calculated based on the fed weekly body weight and is expressed as active moiety. The positive control, ciglitazone ([…], see Chang, A., Wyse, B., Gilchrist, B., Peterson, T. and Diani, A. Diabetes 32: 830-838, 1983.) was given at a dose of 100 mg/kg/day, which produces a significant lowering in plasma glucose. Control mice received vehicle only.
On the morning of Day 4, 7 or 14 two drops of blood (approximately 50 ul) were collected into sodium fluoride containing tubes either from the tail vein or after decapitation. For those studies in which the compound was administered daily by gavage the blood samples were collected two hours after compound administration. The plasma was isolated by centrifugation and the concentration of glucose is measured enzymatically on an Abbott V. P. Analyzer.
For each mouse, the percentage change in plasma glucose on Day 4, 7 or 14 is calculated relative to the mean plasma glucose of the vehicle treated mice. Analysis of variance followed by Dunett's Comparison Test (one-tailed) are used to estimate the significant difference between the plasma glucose values from the control group and the individual compound treated groups (CMS SAS Release 5.18).

[2] = molecular target: T1, Human recombinant PTP1B (Homo sapiens, UniProt P18031); format: biochemical
T1 construct: made in house
T1 sequence (P18031 1-435): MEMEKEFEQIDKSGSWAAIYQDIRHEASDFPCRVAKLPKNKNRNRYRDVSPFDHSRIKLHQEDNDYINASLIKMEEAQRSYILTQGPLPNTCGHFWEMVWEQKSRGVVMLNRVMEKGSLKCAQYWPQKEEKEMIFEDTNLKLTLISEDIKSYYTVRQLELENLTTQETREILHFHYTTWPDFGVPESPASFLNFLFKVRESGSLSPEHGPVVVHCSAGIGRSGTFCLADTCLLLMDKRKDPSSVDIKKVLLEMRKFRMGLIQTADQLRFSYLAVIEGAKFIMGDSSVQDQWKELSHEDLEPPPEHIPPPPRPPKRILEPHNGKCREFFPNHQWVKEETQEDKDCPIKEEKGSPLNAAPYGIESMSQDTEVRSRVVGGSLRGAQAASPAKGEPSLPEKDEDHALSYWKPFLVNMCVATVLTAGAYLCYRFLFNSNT

[3] = test system: rat hepatic microsomal PTPases; settings: PTPase activity; compounds at 50 μM

Row | IC50 [2] | % Change from Control [3] | Compound | also measured
1 | – | – | CC1(COc2ccc(CC3SC(=O)NC3=O)cc2)CCCCC1 (stereo not shown) [Ciglitazone, 5-(4-(1-methylcyclohexylmethoxy)benzyl)-2,4-dione, reference compound] | % Change Insulin from Vehicle ([1]; dose 100 mg/Kg): −39%; % Change Glucose from Vehicle ([1]; dose 100 mg/Kg): −43%
2 | – | – | Cc1oc2cc3sc4ccccc4c3c(-c3ccc(O)cc3)c2c1C [Example 5, 4-(2,3-Dimethyl-1-oxa-9-thia-cyclopenta[b]fluoren-4-yl)-phenol] | melting point: 174 to 175 °C
3 | 284 nM | −58.84% | Cc1oc2cc3sc4ccccc4c3c(-c3cc(I)c(O[C@H](C)C(=O)O)c(I)c3)c2c1C [Example 8, (R)-2-[4-(2,3-Dimethyl-1-oxa-9-thia-cyclopenta[b]fluoren-4-yl)-2,6-diiodo-phenoxy]-propionic acid] | –
4 | 74 nM | −72.70% | Cc1oc2cc3sc4ccccc4c3c(-c3cc(I)c(O[C@H](Cc4ccccc4)C(=O)O)c(I)c3)c2c1C [Example 9, (R)-2-[4-(2,3-Dimethyl-1-oxa-9-thia-cyclopenta[b]fluoren-4-yl)-2,6-diiodo-phenoxy]-3-phenyl-propionic acid] | % Change Insulin from Vehicle ([1]; dose 10 mg/Kg): −43.43%; % Change Glucose from Vehicle ([1]; dose 10 mg/Kg, footnote (a): no significant activity (p < 0.05) at this dose): 8.13%
5 | 8700 nM | – | Ammonium molybdate tetrahydrate [reference compound] | –
